Where two headings read alike, the source gives them in different places.
How the values were obtained:
Wistar rats [1] = test: Time course of markers of nephrotoxicity under gentamicin 150 mg/kg/day
From the text: (§1) In-house bred, female Wistar rats weighing 190-230 g were divided in the following experimental groups (FIG. 1): (i) Control: rats treated i.p. during 7-13 days with saline (0.9% NaCl), once daily.
(§2) For the whole experiment, rats were individually allocated in metabolic cages under temperature and humidity controlled conditions. Animals were allowed to eat regular chow and drink water ad libitum. At different times, 24-hour urine and blood samples were obtained. Urine was collected in graduated vessels supplemented with 100 μL of 0.1% sodium azide and 1 ml oil to prevent contamination and evaporation, respectively. Subsequently, urine was cleared by centrifugation at 1,175×g, aliquoted and stored at −80° C. Blood was drawn from a small incision in the tail and collected in heparinised capillaries. These were immediately centrifuged at 12,000×g and plasma was stored at −80° C. At the end of the experiment, rats were anesthetized with sodium pentobarbital (10 mg/kg). The kidneys were perfused with heparinised saline through the abdominal aorta, and they were immediately dissected. The right kidney and one half of the left one were swiftly frozen by immersion in liquid nitrogen, and stored at −80° C. Eventually, they were used for Western blot studies. For such a purpose, frozen tissues were homogenized under freezing conditions by hammer-smashing, until a fine powder was obtained. The powder was also kept at −80° C. The second half of the left kidney was immersed in 3.7% paraformaldehyde at 4° C. during 14-16 hours. After it, tissue samples were processed for immunohistochemical studies.
(§3) Plasma and urine concentration of creatinine and blood urea nitrogen (BUN) were determined by an automated analysis system (Reflotron®, Roche Diagnostics, Barcelona, Spain) and commercial reactive strips (Roche Diagnostics, Barcelona, Spain), using 32 μL of plasma and urine. This method has a lower detection limit of 0.5 mg/dL for creatinine. Samples reading under 0.5 mg/dL creatinine were head-to-head re-assayed by the colorimetric method of Jaffe (Hervey, 1953. Nature, 171: 1125).
(§4) Urine protein concentration (mg/mL) was measured by the Bradford method (39). Daily protein excretion (mg/day) was obtained by multiplying urine protein concentration by the 24-hour urine flow (mL/day).
(§5) Urine NAG activity (arbitrary units, AU/mL), as an estimation of urine NAG concentration, was measured by a commercial enzymatic test (Roche Diagnostics, Barcelona, Spain) following the manufacturer's instructions. Urine NAG activity was converted into daily NAG excretion (AU/day) by multiplying urine NAG activity by 24-hour urine flow (mL/day).
(§6) Protein extracts were obtained from 100 mg tissue homogenate powder, prepared by homogenizing the kidneys with a tissue mixer (Ultra-Turrax T8, IKA®-Werwe) at 4° C. in homogenization buffer (140 mM NaCl, 20 mM Tris-HCl pH=7.5, 0.5 Methylenediaminetetraacetic acid—EDTA-, 10% glycerol, 1% Igepal CA-630, 1 μg/mL aprotinin, 1 μg/mL leupeptin, 1 μg/mL pepstatin A, 1 mM phenylmethylsulphonyl fluoride—PMSF-). Tissue homogenates were centrifuged at 22,000 g during 15 minutes at 4° C. Supernatants were collected. Protein concentration was measured with a commercial kit (BioRad) based on the Lowry method. 50 μg total protein from tissue extracts or 20 μL cleared urine from each sample were separated by electrophoresis in 10-15% acrylamide gels (Mini Protean II system, BioRad). Immediately, proteins were electrically transferred to an Immobilon-P membrane (Millipore). After blocking the membrane to avoid unspecific binding, membranes were probed with antibodies against KIM-1 (R&D Systems), bone morphogenetic protein-7 (BMP-7, Santa Cruz Biotechnology), plasminogen activator inhibitor-1 (PAI-1, BD Biosciences), vimentin (Dako Denmark) and GM2 activator protein (GM2AP, see above).

Wistar rats [2] = test: Renal function characterization (plasma creatinine, BUN, urinary protein and NAG excretion) of gentamicin-treated rats; conditions: for BUN concentration: vs control
From the text: as §1, §2, §3, §4, §5

[3] = system: PAI-1, KIM-1 and vimentin in renal tissue; test: Western blot of renal tissue homogenates for markers of tissue damage and repair
From the text: as §1, §2, §6

[4] = system: GM2 activator protein (GM2AP) in urine; test: Urinary GM2AP (Western blot) and renal function in humans treated with gentamicin; format: in vivo; conditions: hospitalized patients under gentamicin regime for 2 or 3 days vs untreated controls
From the text: Supernatants were collected.
As controls, the urine from age- and sex-matched individuals not receiving gentamicin was used.

[5] = system: GM2 activator protein (GM2AP) in urine
From the text: as §1, §2
as §6, with “After blocking the membrane to avoid unspecific binding, membranes were probed with antibodies against KIM-1 (R&D Systems), bone morphogenetic protein-7 (BMP-7, Santa Cruz Biotechnology), plasminogen activator inhibitor-1 (PAI-1, BD Biosciences), vimentin (Dako Denmark) and GM2 activator protein (GM2AP, see above).” left out
Protein concentration was determined by the Bradford method.

Wistar rats [6] = test: Kidney histology (haematoxylin and eosin); format: in vivo
Method: Eventually, they were used for Western blot studies. […] The powder was also kept at −80° C. […] After it, tissue samples were processed for immunohistochemical studies.
Kidneys were kept in p-formaldehyde overnight at 4° C. Then, paraffin blocks were made and 5-μm tissue sections were cut and stained with hematoxilin and eosin. Photographs were taken under an Olympus BX51 microscope connected to an Olympus DP70 colour, digital camera.

Wistar rats [7] = test: Survival rate and body weight evolution of rats treated with gentamicin; format: in vivo; conditions: gentamicin 150 mg/kg/day (G-150), 7 days
[8] = G-150, after inception of treatment

**Q.** With gentamicin as the molecule, how does the “day by which BUN concentration was increased” value (Wistar rats [1]; [8]) read?
**A.** 4 days

**Q.** What about the “day by which proteinuria was increased” value (Wistar rats [1]; [8]) of the same molecule?
**A.** 4 days

**Q.** And the “day at which urinary level of GM2AP started to increase” value (Wistar rats [1]; G-150, urine, Western blot)?
**A.** 1 days

**Q.** What about the “day by which urinary level of KIM-1 was increased” value (Wistar rats [1]; G-150, urine, Western blot) of the same molecule?
**A.** 4 days

**Q.** And the “day by which urinary level of PAI-1 was increased” value (Wistar rats [1]; G-150, urine, Western blot)?
**A.** 4 days

**Q.** What about the “time from beginning of administration at which GM2AP is detected by Western blot” value (Wistar rats [1]; gentamicin 150 mg/kg/day, urine) of the same molecule?
**A.** 24 h

**Q.** And the “nephrotoxic effect (pilot dose titration)” value (Wistar rats [2]; 6 daily doses of 50 mg/kg/day (G-50))?
**A.** no signs of nephrotoxicity

**Q.** And the “nephrotoxic effect (pilot dose titration)” value (Wistar rats [2]; 6 daily doses of 150 mg/kg/day (G-150))?
**A.** marked renal failure

**Q.** What about the BUN concentration (Wistar rats [2]; G-50, 7 days) of the same molecule?
**A.** not modified

**Q.** And the BUN concentration (Wistar rats [2]; G-150, 7 days)?
**A.** profoundly altered

**Q.** What about the “renal level of KIM-1” value ([3]; G-50, 7 days, vs control) of the same molecule?
**A.** no increment

**Q.** What about the “renal level of PAI-1” value ([3]; G-50, 7 days, vs control) of the same molecule?
**A.** no increment

**Q.** What about the “renal level of vimentin” value ([3]; G-50, 7 days, vs control) of the same molecule?
**A.** no increment

**Q.** What about the “renal level of KIM-1” value ([3]; G-150, 7 days) of the same molecule?
**A.** clear increase

**Q.** And the “renal level of PAI-1” value ([3]; G-150, 7 days)?
**A.** clear increase

**Q.** And the “renal level of vimentin” value ([3]; G-150, 7 days)?
**A.** clear increase

**Q.** What about the “urinary level of GM2AP (Western blot)” value [4] of the same molecule?
**A.** clearly higher

**Q.** What about the “level of GM2AP in urine (Western blot)” value ([5]; G-50, 7 days, vs control) of the same molecule?
**A.** differential level

**Q.** What about the “GM2AP in urine (differential proteomics, 2D-electrophoresis)” value ([5]; G-50, 7 days, absent in control urine) of the same molecule?
**A.** highly expressed

**Q.** What about the “level of GM2AP in urine (Western blot)” value ([5]; G-150, 7 days, overt renal failure) of the same molecule?
**A.** increased

**Q.** What about the renal histology (Wistar rats [6]; G-50, 7 days, vs control) of the same molecule?
**A.** no gross tissue alterations

**Q.** And the renal histology (Wistar rats [6]; G-150, 7 days)?
**A.** massive tubular necrosis

**Q.** And the body weight (Wistar rats [7])?
**A.** body weight loss

**Q.** And the death rate (Wistar rats [7])?
**A.** ~50%

**Q.** `N.N.[Cl][Pt][Cl]` [cisplatin] was tested. Which “urinary GM2AP (Western blot)” value ([5]; two doses of cisplatin 10 mg/kg on first and third days, urine 4 days after treatment inception) did it give?
**A.** high levels
